For experiment [1], the target named is GluN1/GluN2A NMDAR (Homo sapiens, UniProt Q05586+Q12879, Q05586:Y647S). The experiment is described as follows: two-electrode voltage clamp, Xenopus oocytes. It counts as cell-based. Background: Two-electrode voltage clamp holds a large cell at a set potential and records current.
The target in experiment [2] is GluN1/GluN2B NMDAR (Homo sapiens, UniProt Q05586+Q13224, Q05586:Y647S). Put plainly: two-electrode voltage clamp, Xenopus oocytes. It is filed as cell-based.

The source of these data is publication doi:10.1101/2024.08.21.608984v2 (biorxiv, 2025).

As usually defined, the EC50 is the midpoint of the concentration-response curve. Low values mean an effect from little substance, high ones a need for much substance.

Each structure is given as a SMILES string.

Chain of GluN1/GluN2A NMDAR (Q12879 23-1464, other chains not shown): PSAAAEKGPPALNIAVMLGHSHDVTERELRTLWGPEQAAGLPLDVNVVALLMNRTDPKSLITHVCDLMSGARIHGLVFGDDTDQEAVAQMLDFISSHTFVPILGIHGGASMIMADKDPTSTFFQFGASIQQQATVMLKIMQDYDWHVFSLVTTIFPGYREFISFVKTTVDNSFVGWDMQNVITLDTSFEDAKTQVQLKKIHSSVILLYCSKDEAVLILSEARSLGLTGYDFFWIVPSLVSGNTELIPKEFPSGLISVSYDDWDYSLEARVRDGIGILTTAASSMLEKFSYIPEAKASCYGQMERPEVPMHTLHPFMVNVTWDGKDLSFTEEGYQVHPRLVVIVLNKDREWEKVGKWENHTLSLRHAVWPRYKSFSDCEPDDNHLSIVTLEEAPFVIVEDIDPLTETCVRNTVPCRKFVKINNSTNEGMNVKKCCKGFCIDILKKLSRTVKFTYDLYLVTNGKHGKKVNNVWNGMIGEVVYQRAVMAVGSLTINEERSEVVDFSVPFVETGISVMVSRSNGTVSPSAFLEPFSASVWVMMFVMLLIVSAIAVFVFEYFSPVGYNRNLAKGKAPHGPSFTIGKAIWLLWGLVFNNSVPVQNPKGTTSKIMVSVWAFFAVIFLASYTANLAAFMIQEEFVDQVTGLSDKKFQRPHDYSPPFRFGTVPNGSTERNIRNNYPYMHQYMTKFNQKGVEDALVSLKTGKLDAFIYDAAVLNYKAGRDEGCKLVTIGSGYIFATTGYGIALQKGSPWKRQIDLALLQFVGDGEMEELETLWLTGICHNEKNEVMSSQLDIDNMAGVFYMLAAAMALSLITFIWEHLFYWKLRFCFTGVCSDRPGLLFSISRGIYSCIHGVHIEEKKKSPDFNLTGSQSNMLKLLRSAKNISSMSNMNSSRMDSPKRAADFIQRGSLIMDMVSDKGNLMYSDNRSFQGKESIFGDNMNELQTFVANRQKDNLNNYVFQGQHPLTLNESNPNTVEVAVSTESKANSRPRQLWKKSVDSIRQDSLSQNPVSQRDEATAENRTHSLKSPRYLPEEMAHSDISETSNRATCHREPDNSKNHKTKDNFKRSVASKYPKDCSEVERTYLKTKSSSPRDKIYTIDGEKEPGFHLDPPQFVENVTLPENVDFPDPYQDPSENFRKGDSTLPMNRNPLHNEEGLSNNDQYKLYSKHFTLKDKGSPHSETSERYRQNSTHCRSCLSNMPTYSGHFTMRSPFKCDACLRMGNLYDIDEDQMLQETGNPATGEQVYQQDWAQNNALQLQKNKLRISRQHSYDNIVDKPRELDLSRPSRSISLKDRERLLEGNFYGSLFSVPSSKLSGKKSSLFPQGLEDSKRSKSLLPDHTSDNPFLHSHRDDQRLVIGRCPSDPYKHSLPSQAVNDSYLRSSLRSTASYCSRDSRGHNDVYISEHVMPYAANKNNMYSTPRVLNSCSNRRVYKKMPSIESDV
Chain of GluN1/GluN2B NMDAR (Q13224 27-1484, other chains not shown): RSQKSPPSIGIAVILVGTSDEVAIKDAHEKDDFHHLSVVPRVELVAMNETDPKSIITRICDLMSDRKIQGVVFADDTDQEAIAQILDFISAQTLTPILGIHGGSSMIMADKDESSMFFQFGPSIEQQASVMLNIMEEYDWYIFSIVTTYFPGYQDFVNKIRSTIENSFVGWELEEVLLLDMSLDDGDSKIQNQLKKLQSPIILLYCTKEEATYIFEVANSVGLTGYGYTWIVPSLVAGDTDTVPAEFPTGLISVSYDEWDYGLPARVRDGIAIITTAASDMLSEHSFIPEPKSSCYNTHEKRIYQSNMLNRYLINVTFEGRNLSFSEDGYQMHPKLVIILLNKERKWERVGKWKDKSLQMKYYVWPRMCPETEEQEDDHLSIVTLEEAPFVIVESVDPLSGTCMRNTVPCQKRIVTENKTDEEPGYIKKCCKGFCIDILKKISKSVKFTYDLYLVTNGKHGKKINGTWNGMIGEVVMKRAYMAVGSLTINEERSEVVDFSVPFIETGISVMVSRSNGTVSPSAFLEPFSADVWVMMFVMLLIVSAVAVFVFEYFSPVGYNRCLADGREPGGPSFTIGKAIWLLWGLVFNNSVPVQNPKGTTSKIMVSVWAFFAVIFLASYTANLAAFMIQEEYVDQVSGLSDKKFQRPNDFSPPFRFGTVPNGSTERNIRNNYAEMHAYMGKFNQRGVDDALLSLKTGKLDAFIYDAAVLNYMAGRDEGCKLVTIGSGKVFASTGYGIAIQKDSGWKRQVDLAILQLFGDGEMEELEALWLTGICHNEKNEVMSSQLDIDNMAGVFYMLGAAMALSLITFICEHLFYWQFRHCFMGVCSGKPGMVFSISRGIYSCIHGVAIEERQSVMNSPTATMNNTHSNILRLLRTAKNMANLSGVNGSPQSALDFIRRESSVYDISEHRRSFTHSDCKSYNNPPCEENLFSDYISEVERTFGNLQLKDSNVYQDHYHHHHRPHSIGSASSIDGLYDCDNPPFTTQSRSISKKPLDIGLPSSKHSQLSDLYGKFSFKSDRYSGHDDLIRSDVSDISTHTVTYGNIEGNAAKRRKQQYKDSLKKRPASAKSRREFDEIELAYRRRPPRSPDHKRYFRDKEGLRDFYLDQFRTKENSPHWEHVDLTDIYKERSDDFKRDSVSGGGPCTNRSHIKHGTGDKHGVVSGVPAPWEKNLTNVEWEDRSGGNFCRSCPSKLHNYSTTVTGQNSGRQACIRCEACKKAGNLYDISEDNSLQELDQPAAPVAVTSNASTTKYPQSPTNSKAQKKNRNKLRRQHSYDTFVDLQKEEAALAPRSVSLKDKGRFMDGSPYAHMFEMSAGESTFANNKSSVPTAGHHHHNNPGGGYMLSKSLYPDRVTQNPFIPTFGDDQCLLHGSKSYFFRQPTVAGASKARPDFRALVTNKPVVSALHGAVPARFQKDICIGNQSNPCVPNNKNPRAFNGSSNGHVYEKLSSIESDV

Take `NCC(=O)O` [glycine]: the EC50 was found to be 36 nM in experiment [1] and 17 nM in experiment [2].
